A value given as a limit tells only on which side of the number the result lay.

This note sets out measurements from US20240174662A1, “SMALL MOLECULE INHIBITORS OF SALT INDUCIBLE KINASES” (Janssen Biotech, Inc., priority 2021, published 2024).

The target of this experiment is SIK2 (Homo sapiens (Human), UniProt Q9H0K1). Put plainly: SIK2 Enzymatic Assay Version 2 (High ATP). The format is biochemical. The following applies: 3 mM ATP and 200 μM HDAC5tide final, ADP-Glo Max luminescence. Here is the method: All steps were performed at room temperature. Compounds were pre-plated onto an assay plate using an Echo acoustic dispenser (Labcyte, […] or […]) at 80 nL per well. Enzyme prepared in assay buffer at 6 nM (2× final concentration) was added at 4 μL per well using the Multidrop Combi (Thermo Fisher-used for all additions in this assay) to the assay plate, spun for 1 min at 1000 rpm (Allegra 6KR Beckman Coulter centrifuge), and incubated with compound for 30 minutes. […] ADP-Glo Max Reagent (prepared and aliquoted as per manufacturer instructions) was then added at 8 μL per well, spun and incubated for 2 hours. ADP-Glo Max Detection (prepared and aliquoted as per manufacturer instructions) was added at 8 μL per well to the assay plate, which was spun and incubated for 1 hour. The plate was then read on the Pherastar (BMG Labtech) using a luminescence read. Gain was set between 2200-2500.
Chain of SIK2 (Q9H0K1 whole entry, species assumed): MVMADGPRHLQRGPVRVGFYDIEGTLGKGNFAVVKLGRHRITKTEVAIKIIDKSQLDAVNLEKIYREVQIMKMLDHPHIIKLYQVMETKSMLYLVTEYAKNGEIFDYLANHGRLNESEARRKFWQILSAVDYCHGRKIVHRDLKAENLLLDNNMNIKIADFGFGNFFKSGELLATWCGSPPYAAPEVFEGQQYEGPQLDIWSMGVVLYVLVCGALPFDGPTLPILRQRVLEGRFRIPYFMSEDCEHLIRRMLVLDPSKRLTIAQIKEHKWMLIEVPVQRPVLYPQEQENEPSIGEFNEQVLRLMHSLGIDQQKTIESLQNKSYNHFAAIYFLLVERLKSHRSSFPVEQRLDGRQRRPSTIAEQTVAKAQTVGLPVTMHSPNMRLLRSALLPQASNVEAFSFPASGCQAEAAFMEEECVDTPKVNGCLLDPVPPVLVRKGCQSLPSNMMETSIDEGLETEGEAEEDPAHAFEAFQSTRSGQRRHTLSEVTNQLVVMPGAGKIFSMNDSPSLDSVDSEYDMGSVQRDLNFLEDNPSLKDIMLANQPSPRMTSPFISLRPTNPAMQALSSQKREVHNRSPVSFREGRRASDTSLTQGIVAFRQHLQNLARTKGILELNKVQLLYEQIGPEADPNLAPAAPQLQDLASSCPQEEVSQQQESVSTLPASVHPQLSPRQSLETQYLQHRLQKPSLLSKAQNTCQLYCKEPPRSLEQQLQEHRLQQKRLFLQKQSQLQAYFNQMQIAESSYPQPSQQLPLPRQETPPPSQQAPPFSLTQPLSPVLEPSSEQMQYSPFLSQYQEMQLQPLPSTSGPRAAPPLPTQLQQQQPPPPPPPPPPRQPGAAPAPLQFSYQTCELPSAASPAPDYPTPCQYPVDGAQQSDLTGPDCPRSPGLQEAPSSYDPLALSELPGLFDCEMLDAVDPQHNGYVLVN

Turning to `Cc1nc(Nc2cc3cc(-c4c(OC[C@H]5CCN5C)cnn4C)ccn3n2)cc(C(F)(F)F)n1` [Example 122, 5-[2-methyl-4-[[(2R)-1-methylazetidin-2-yl]methoxy]pyrazol-3-yl]-N-[2-methyl-6-(trifluoromethyl)pyrimidin-4-yl]pyrazolo[1,5-a]pyridin-2-amine], the IC50 is 0.0036 µM.

The compound `CCN1CC[C@@H]1COc1cnn(C(F)F)c1-c1ccn2nc(Nc3cc(C)c(=O)n(C)n3)cc2c1` [Example 484, 6-[[5-[2-(difluoromethyl)-4-[[(2R)-1-ethylazetidin-2-yl]methoxy]pyrazol-3-yl]pyrazolo[1,5-a]pyridin-2-yl]amino]-2,4-dimethyl-pyridazin-3-one] had an IC50 of 0.0009 µM.

With `Cn1ncc(O[C@@H]2CNC[C@H]2O)c1-c1ccn2nc(NC(=O)C3CC3)cc2c1` (single isomer, unassigned) [Example 414, (3*R,4*R)—N-[5-[4-(4-hydroxypyrrolidin-3-yl)oxy-2-methyl-pyrazol-3-yl]pyrazolo[1,5-a]pyridin-2-yl]cyclopropanecarboxamide], the half-inhibitory concentration (IC50) is 0.0987 µM.

As to `Cn1ncc(OC[C@@H](O)C(F)(F)F)c1-c1ccn2nc(NC(=O)C3CC3)cc2c1` (single isomer, unassigned) [Example 401, (*R)—N-[5-[2-methyl-4-(3,3,3-trifluoro-2-hydroxy-propoxy)pyrazol-3-yl]pyrazolo[1,5-a]pyridin-2-yl]cyclopropanecarboxamide], the midpoint of inhibition, the IC50, lay at 0.107 µM.

Take `Cc1cnc(Nc2cc3cc(-c4c(CO[C@H]5CN(C)C[C@@H]5C)cnn4C)ccn3n2)cn1` (stereo in doubt) [Example 469, (rac-trans)-5-[4-[(1,4-dimethylpyrrolidin-3-yl)oxymethyl]-2-methyl-pyrazol-3-yl]-N-(5-methylpyrazin-2-yl)pyrazolo[1,5-a]pyridin-2-amine]: the midpoint of inhibition, the IC50, lay at 0.0273 µM.

On to `Cc1cc(Nc2cc3cc(-c4c(OC[C@](C)(O)C5CC5)cnn4C)ccn3n2)nc(C)n1` (single isomer, unassigned) [Example 304, (*S)-2-cyclopropyl-1-[5-[2-[(2,6-dimethylpyrimidin-4-yl)amino]pyrazolo[1,5-a]pyridin-5-yl]-1-methyl-pyrazol-4-yl]oxy-propan-2-ol], for which the 50% inhibitory concentration (IC50) was found to be 0.0457 µM.

Consider `Cc1cc(Nc2cc3cc(-c4c(OC[C@H]5CCN5C[C@H](C)O)cnn4C)ccn3n2)nc(C)n1` [Example 292, (2S)-1-[(2R)-2-[[5-[2-[(2,6-dimethylpyrimidin-4-yl)amino]pyrazolo[1,5-a]pyridin-5-yl]-1-methyl-pyrazol-4-yl]oxymethyl]azetidin-1-yl]propan-2-ol], for which the IC50 is < 0.000847 µM.

Compound `Cn1ncc(O[C@H]2CCNC2)c1-c1ccc2nc(NC(=O)C3CC3)cn2c1` [Example 471, N-[6-[2-methyl-4-[(3S)-pyrrolidin-3-yl]oxy-pyrazol-3-yl]imidazo[1,2-a]pyridin-2-yl]cyclopropanecarboxamide] had a half-inhibitory concentration (IC50) of 0.0558 µM.

For the compound `Cn1ncc(OCC2(N)COC2)c1-c1ccn2nc(NC(=O)C3CC3)cc2c1` [Example 402, N-[5-[4-[(3-aminooxetan-3-yl)methoxy]-2-methyl-pyrazol-3-yl]pyrazolo[1,5-a]pyridin-2-yl]cyclopropanecarboxamide], the IC50 worked out at 0.0924 µM.

`CCN1CC[C@@H]1COc1cnn(C)c1-c1ccn2nc(Nc3cnc(OC)cn3)cc2c1` [Example 180, 5-[4-[[(2R)-1-ethylazetidin-2-yl]methoxy]-2-methyl-pyrazol-3-yl]-N-(5-methoxypyrazin-2-yl)pyrazolo[1,5-a]pyridin-2-amine]: the concentration for half-maximal inhibition (IC50) was 0.0021 µM.

In the case of `Cc1ccc(Nc2cc3cc(-c4c(OC[C@H]5CCN5C)cnn4C)ccn3n2)nn1` [Example 39, 5-[2-methyl-4-[[(2R)-1-methylazetidin-2-yl]methoxy]pyrazol-3-yl]-N-(6-methylpyridazin-3-yl)pyrazolo[1,5-a]pyridin-2-amine], the IC50 came out at 0.0034 µM.

Consider `Cc1onc(OCC2(C(N)=O)CNC2)c1-c1ccn2nc(NC(=O)C3CC3)cc2c1` [Example 198, 3-[[4-[2-(cyclopropanecarbonylamino)pyrazolo[1,5-a]pyridin-5-yl]-5-methyl-isoxazol-3-yl]oxymethyl]azetidine-3-carboxamide], for which the IC50 was 0.0287 µM.

Turning to `Cc1cc(Nc2cc3cc(-c4c(OC[C@@H](O)C5(C)CC5)cnn4C)ccn3n2)nc(C)n1` (single isomer, unassigned) [Example 357, *S-1-methylcyclopropyl-2-[5-[2-[(2,6-dimethylpyrimidin-4-yl)amino]pyrazolo[1,5-a]pyridin-5-yl]-1-methyl-pyrazol-4-yl]oxy-ethanol], half-maximal inhibition (IC50) was put at 0.0619 µM.

`Cc1cnc(Nc2cc3cc(-c4c(OC[C@H]5CCN5C)noc4C)ccn3n2)cn1` [Example 323, 5-[5-methyl-3-[[(2R)-1-methylazetidin-2-yl]methoxy]isoxazol-4-yl]-N-(5-methylpyrazin-2-yl)pyrazolo[1,5-a]pyridin-2-amine]: the IC50 worked out at 0.0256 µM.

In turn, `CCN1CC[C@@H]1COc1cnn(C)c1-c1ccn2nc(Nc3cc(OC)ncn3)cc2c1` [Example 167, 5-[4-[[(2R)-1-ethylazetidin-2-yl]methoxy]-2-methyl-pyrazol-3-yl]-N-(6-methoxypyrimidin-4-yl)pyrazolo[1,5-a]pyridin-2-amine] came in with a 50% inhibitory concentration (IC50) of 0.0027 µM.

For the compound `COc1nccc(Nc2cc3cc(-c4c(OC[C@H]5CCN5C)cnn4C)ccn3n2)n1` [Example 119, N-(2-methoxypyrimidin-4-yl)-5-[2-methyl-4-[[(2R)-1-methylazetidin-2-yl]methoxy]pyrazol-3-yl]pyrazolo[1,5-a]pyridin-2-amine], the half-maximal inhibitory concentration (IC50) is 0.0016 µM.

Compound `CCN1CC[C@@H]1COc1cnn(C(F)F)c1-c1ccn2nc(Nc3cc(C)ncn3)cc2c1` [Example 478, 5-[2-(difluoromethyl)-4-[[(2R)-1-ethylazetidin-2-yl]methoxy]pyrazol-3-yl]-N-(6-methylpyrimidin-4-yl)pyrazolo[1,5-a]pyridin-2-amine] yielded an IC50 of 0.003 µM.

`CN1CC(C)(OCc2cnn(C)c2-c2ccn3nc(NC(=O)C4CC4)cc3c2)C1` [Example 192, N-[5-[4-[(1,3-dimethylazetidin-3-yl)oxymethyl]-2-methyl-pyrazol-3-yl]pyrazolo[1,5-a]pyridin-2-yl]cyclopropanecarboxamide] displayed an IC50 of 0.0196 µM.

As to `Cc1onc(OC[C@H]2CCCCN2C)c1-c1ccn2nc(NC(=O)C3CC3)cc2c1` [Example 502, N-[5-[5-methyl-3-[[(2R)-1-methyl-2-piperidyl]methoxy]isoxazol-4-yl]pyrazolo[1,5-a]pyridin-2-yl]cyclopropanecarboxamide], half-maximal inhibition (IC50) was put at 1.58 µM.

As to `CCN1CC2(CC2)[C@@H]1COc1cnn(C)c1-c1ccn2nc(NC(=O)C3CC3)cc2c1` (single isomer, unassigned) [Example 16, (*R)—N-(5-(4-((5-Ethyl-5-azaspiro[2.3]hexan-4-yl)methoxy)-1-methyl-1H-pyrazol-5-yl)pyrazolo[1,5-a]pyridin-2-yl)cyclopropanecarboxamide], the half-maximal inhibitory concentration (IC50) worked out at 0.219 µM.

On to `CCN1CC[C@H]1COc1cnn(C)c1-c1ccn2nc(Nc3cnc(C)c(C)n3)cc2c1` [Example 359, N-(5,6-dimethylpyrazin-2-yl)-5-[4-[[(2S)-1-ethylazetidin-2-yl]methoxy]-2-methyl-pyrazol-3-yl]pyrazolo[1,5-a]pyridin-2-amine], for which the IC50 was determined as 0.0524 µM.

Turning to `Cn1ncc(OC[C@@H](N)C(C)(C)C)c1-c1ccn2nc(NC(=O)C3CC3)cc2c1` [Example 348, N-[5-[4-[(2S)-2-amino-3,3-dimethyl-butoxy]-2-methyl-pyrazol-3-yl]pyrazolo[1,5-a]pyridin-2-yl]cyclopropanecarboxamide], the IC50 came to 0.0553 µM.

The compound `CN1C[C@H](COc2cnn(C)c2-c2ccn3nc(NC(=O)C4CC4)cc3c2)[C@@H](O)C1` [Example 424, N-[5-[4-[[(3R,4R)-4-hydroxy-1-methyl-pyrrolidin-3-yl]methoxy]-2-methyl-pyrazol-3-yl]pyrazolo[1,5-a]pyridin-2-yl]cyclopropanecarboxamide] had an IC50 of 0.0961 µM.

In the case of `CN1CC[C@H](Oc2cnn(C)c2-c2ccn3nc(Nc4cc5ccccc5nn4)cc3c2)C1` [Example 342, N-[5-[2-methyl-4-[(3S)-1-methylpyrrolidin-3-yl]oxy-pyrazol-3-yl]pyrazolo[1,5-a]pyridin-2-yl]cinnolin-3-amine], the 50% inhibitory concentration (IC50) turned out to be 0.0688 µM.

`Cn1ncc(CO[C@H]2CNCC2(F)F)c1-c1ccn2nc(NC(=O)C3CC3)cc2c1` (single isomer, unassigned) [Example 465, (*S)—N-[5-[4-[(4,4-difluoropyrrolidin-3-yl)oxymethyl]-2-methyl-pyrazol-3-yl]pyrazolo[1,5-a]pyridin-2-yl]cyclopropanecarboxamide] showed a concentration for half-maximal inhibition (IC50) of 0.0749 µM.

Compound `Cn1ncc(OC[C@H]2CCN2CCF)c1-c1ccn2nc(NC(=O)C3CC3)cc2c1` [Example 241, N-[5-[4-[[(2R)-1-(2-fluoroethyl)azetidin-2-yl]methoxy]-2-methyl-pyrazol-3-yl]pyrazolo[1,5-a]pyridin-2-yl]cyclopropanecarboxamide] came in with an IC50 of 0.0035 µM.

`CCc1cc(Nc2cc3cc(-c4c(OC[C@@H]5CCN5CC)cnn4C)ccn3n2)nc(C)n1` [Example 169, 5-[4-[[(2S)-1-ethylazetidin-2-yl]methoxy]-2-methyl-pyrazol-3-yl]-N-(6-ethyl-2-methyl-pyrimidin-4-yl)pyrazolo[1,5-a]pyridin-2-amine]: the IC50 was found to be 0.0387 µM.

`C[C@H]1C[C@H](Oc2cnn(C)c2-c2ccn3nc(NC(=O)C4CC4)cc3c2)CN1` [Example 338, N-[5-[2-methyl-4-[(3S,5S)-5-methylpyrrolidin-3-yl]oxy-pyrazol-3-yl]pyrazolo[1,5-a]pyridin-2-yl]cyclopropanecarboxamide] came in with an IC50 of 0.053 µM.
